The values below are quoted from earlier work in US20040062779A1, “Dermatologic composition using ultra-fine/micronized 1-ascorbic acid and other antioxidant ingredients in a stabilized anhydrous vehicle” (priority 2002, published 2004).

This data set concerns collagen synthesis. Conditions: in-vitro; Pinnell, Yale J. Biol. Med. 58:554 (1985).

Consider `O=C1O[C@H]([C@@H](O)CO)C(O)=C1O` [ascorbic acid], for which the collagen synthesis entry is given as “stimulates collagen synthesis”.
